Measured values reported in patent publication US20200368314A1, “PEPTIDES FOR TREATMENT AND PREVENTION OF NONALCOHOLIC FATTY LIVER DISEASE” (UNIVERSITE DE STRASBOURG, priority 2017, published 2020).
Entries after “also recorded” stand apart in the source; their conditions may differ.

Legend:
DIO male mice = experiment: Oral glucose tolerance test, PATAD, metformin or both; details: PATAD injection, metformin daily oral gavage
albumin = experiment: Plasma free albumin determination; format: in vivo, mouse; details: 3 months after PATAD injection, N=5
Description: Lipids are transported bound to albumin and therefore plasma content of free albumin was measured as a readout of the effect of PATAD stapled peptide sequence A on circulating lipid profile 3 months after PATAD injection. N=5 mice per group.
A decreased circulating free albumin concentration has been observed when the mice were treated with PATAD stapled peptide sequence A indicating an increase in the levels of circulating lipids (FIG. 6).
(§1) For GLP-1 measurement, a commercially available kit was used. RayBio Human/Mouse/Rat GLP-1 Enzyme Immunoassay Kit, EIA-GLP1, RayBiotech were used with the indicated procedures from the manufacturer. For the plasma albumin level determination, a commercially available kit was used.

[1] = system: ALT (Alanine Aminotransferase); experiment: Plasma ALT ELISA; format: in vivo, mouse; details: 3 months after a single subcutaneous injection, n=4
Description: (§2) Mean values of both AST and ALT measured by ELISA approach in plasma of mice with the indicated treatment. n=4 samples per group.
(§3) Mice presented in FIG. 1 were euthanized and their plasma and organs were sampled for analysis. […] Cryosection of the livers were then stained with Adipored and DAPI to detect the level of lipid droplets. […] Hepatic function is assessed by two liver related strong biomarkers namely (AST (Aspartate Aminotransferase) and ALT (Alanine Aminotransferase)), whose levels increase proportionately with liver damage.
(§4) Plasma samples from the indicated mice were used to determine plasma content of either AST (aspartate aminotransferase) or […] (alanine aminotransferase) both robust indicators of liver damage were measured using commercially purchased ELISA kits. These parameters were determined according to manufacturer's procedure.
SEA207Mu (96 Tests): Enzyme-linked Immunosorbent Assay Kit For Alanine Aminotransferase (ALT), Cloud Clone Corp

GLP-1 = experiment: Circulating GLP-1 enzyme immunoassay; format: in vivo, mouse; details: plasma; 11 days post single injection
Description: FIG. 4: PATAD stapled peptide sequence A reduces FATP2 expression level in the adipose tissue and increases GLP-1 circulating levels • (A)4 month-old male mice fed with a high fat/high glucose diet were used in this set of experiment.
Mice were injected with a single dose of either scramble peptide or PATAD stapled peptide sequence A. 11 days post injection, the mice were euthanized, and plasma was obtained and used for determination of circulating GLP1 from mice with the indicated treatment.
as §1

[2] = system: FATP2 (Fatty acid transport protein 2); experiment: q-PCR expression of fatty acid transporters in adipose tissue; format: in vivo, mouse; details: high fat/high glucose diet male mice; 11 days post single injection; GAPDH reference gene
From the text: n=4 animals per group, GAPDH was used as reference gene. There are 6 isoforms of FATP (FATP1-6 also known as SLC27A1-SLC27A6).
As PATAD subcutaneous injection relates to restoration of glucose absorption in the adipose tissue, the inventors measured the expression levels of all 6 isoforms for the FATPs (1-6) (Fatty acid transport protein 1-6) and the 4 isoforms of the FFAR (Free Fatty Acid Receptor) to assess any effect on these genes.
All peptides were initially dissolved in DMSO and then diluted in sterile saline solution at a concentration of 10 ng/μL. 2.5 μL of each peptide (stapled or scrambled) were mixed and then injected directly in the subcutaneaous adipose tissue in each mouse. […]
Total RNA was prepared from the different tissues and cells using a RiboPure™ kit (Catalog #: AM1924; Ambion) followed by a DNAse treatment with the TURBO DNA-Free™ (Catalog #: AM 1907; Ambion). RNA integrity was assessed by gel electrophoresis and RNA concentration by Eppendorf Biophotometer Plus with the Hellma® Tray Cell (Catalog #: 105.810-uvs; Hellma). […] Real-time quantitative polymerase chain reaction amplification was performed in a BioRad CFX96™ Real-Time System using the iQ™ SYBR® Green Supermix (Catalog #: 170-8886; BioRAd) and primer sets optimized for tested targets for SYBR Green-based real-time PCR for the real-time PCR. […]

[3] = system: AST (Aspartate Aminotransferase); experiment: Plasma AST ELISA; format: in vivo, mouse; details: 3 months after a single subcutaneous injection, n=4
Description: as §2, §3, §4
SEB214Mu (96 Tests): Enzyme-linked Immunosorbent Assay Kit For Aspartate Aminotransferase (AST), Cloud Clone Corp

Row | Molecule | onset of the effect on the GTT (DIO male mice) | circulating free albumin concentration (albumin) | circulating ALT level [1] | circulating GLP-1 concentration (GLP-1) | FATP2 expression level in the adipose tissue [2] | circulating AST level [3]
1 | CN(C)C(=N)N=C(N)N [metformin] | delayed by one week |  |  |  |  | 
2 | VE CTM-[2-(4-pentenyl) alanine]-EK RVL A-[2-(4-pentenyl)alanine]-L DKP PFL TQL HS [PATAD stapled peptide sequence A] |  | decreased | effective in reducing | restored high circulating levels; also recorded: restore GLP1 circulating levels back to lean controls | decreased; also recorded: reduces | effective in reducing
